According to patent US20170008928A1, “NOVEL PEPTIDES AND PEPTIDE DERIVATIVES AND USES THEREOF” (Novo Nordisk A/S, priority 2015, published 2017):
Starred links: 1 amine or outer side, 2 acyl side, 3 side chain; linkers in the order of their positions; H or OH if unused. Non-standard residues stand in square brackets, D forms with d. Residues, ends and D or L forms follow the SMILES beside them. *: point of attachment. Phe(4-CH2SO3H) = N[C@@H](Cc1ccc(CS(=O)(=O)O)cc1)C(=O)O; C20 diacid = O=C(O)CCCCCCCCCCCCCCCCCCC(=O)*; sY = N[C@@H](Cc1ccc(OS(=O)(=O)O)cc1)C(=O)O; C18 diacid = O=C(O)CCCCCCCCCCCCCCCCC(=O)*; γGlu = O=C(O)[C@H](CCC(=O)[*:2])N[*:1]; 1Nal = N[C@@H](Cc1cccc2ccccc12)C(=O)O; C14 diacid = O=C(O)CCCCCCCCCCCCC(=O)*; NMeF = CN[C@@H](Cc1ccccc1)C(=O)O; dNMeD = CN[C@H](CC(=O)O)C(=O)O; Nle = CCCC[C@H](N)C(=O)O; AEEA = NCCOCCOCC(=O)O

Assay: Pharmacokinetic (PK) studies in mini-pig, i.v.
Type: in vivo
Conditions: i.v. 5 nmol/kg, female Göttingen mini-pigs, harmonic mean
Protocol: The purpose of this study is to determine the protraction in vivo of a number of CCK derivatives of the invention after intravenous (i.v.) administration to mini-pigs, i.e. the prolongation of their time in the body and thereby their time of action. This was done in pharmacokinetic (PK) studies, where the terminal half-life of the derivative in question was determined. By terminal half-life is generally meant the period of time it takes to halve a certain plasma concentration, measured after the initial distribution phase.
The derivatives of the compounds listed in Table 4 were subjected to PK studies as described in the following.
Female Göttingen mini-pigs obtained from Ellegaard Göttingen Minipigs (Dalmose, Denmark) at approximately 6 months of age and weighing approximately 17 kg were used in the studies. […] Additional blood samples were collected for the derivatives of Examples 2, 4, 7, 8, and 9 at the following time points: 5, 12, 22, 28 and 144 hours. The blood samples were collected into test tubes containing EDTA buffer for stabilisation and kept on ice for max. 20 minutes before centrifugation. The centrifugation procedure to separate plasma was: 4° C., approx. 2500 g for 10 minutes. Plasma was collected and immediately transferred to Micronic tubes stored at −20° C. until assayed.
Plasma was pipetted into Micronic tubes on dry ice, and kept at −20° C. until analysed for plasma concentration of the respective CCK derivative using LC-MS. The plasma samples (including standard curve samples used for quantitation of unknowns and prepared from blank plasma spiked with CCK compound at a concentration range of 0.5-2000 nM for the compounds of Examples 3, 5, 6 or 0.5-1000 nM for the remaining Example compounds) were protein precipitated using three volumes of methanol and centrifuged (16000×g, 4° C., 20 min). The supernatants were injected into the chromatographic system (TurboFlow Transcend 1250 & 10 valve VIM, Thermo Fisher Scientific) which consisted of an initial Turboflow Cyclone purification column 0.5×50 mm (Thermo Fischer Scientific) and an eluting Aeris peptide 3.6 μm XB—C18 column 2.1×50 mm (Phenomenex) kept at 60° C.
The CCK derivatives of Examples 2-9 were eluted using LC-MS method I: A chromatographic gradient system with mobile phases consisting of water with 0.1 v/v % formic acid (mobile phase A) and water/acetonitrile 10/90 v/v with 0.1 v/v % formic acid (mobile phase B). The 2 minute gradient started at 60% mobile phase B and ended at 100% mobile phase B with a flow of 0.4 mL/min. The CCK derivatives were detected and quantified after on-line infusion of the LC flow to the LTQ OrbiTrap Discovery mass spectrometer (Thermo Fischer Scientific) equipped with an electrospray interface operated in negative mode, ESI− (Sheath gas flow rate at 40, Aux gas flow rate at 30, Sweep gas flow rate at 2, Spray voltage at 2.8 kV, Capillary temp. at 275° C., S-lens RF level at −125 and Heater temp. at 325° C.).
The remaining Example compounds were eluted using LC-MS method II: A chromatographic gradient system with mobile phases consisting of water with 1 v/v % formic acid (mobile phase A) and water/acetonitrile 10/90 v/v with 1 v/v % formic acid (mobile phase B). The initial 0.25 minute gradient started at 0% mobile phase B and ended at 70% mobile phase B followed by the second 2.2 minute gradient started at 70% mobile phase B and ended at 75% mobile phase B with a flow of 0.4 mL/min. These CCK derivatives were detected and quantified as described above except that the Spray voltage was 4.0 kV.
Individual plasma concentration-time profiles were analysed by a non-compartmental model in Phoenix v. 6.3 (Pharsight Inc., Mountain View, Calif., USA).

SMILES	half-life (minipig, plasma, iv, read-out: Plasma terminal half-life (T½) (converted)) [h]	Plasma terminal half-life (T½) [h]
CCCC[C@H](NC(=O)[C@H](Cc1c[nH]c2ccccc12)NC(=O)CNC(=O)[C@H](CC(C)C)NC(=O)[C@H](Cc1ccc(OS(=O)(=O)O)cc1)NC(=O)[C@H](CC(=O)O)NC(=O)[C@H](CO)NC(=O)[C@H](CO)NC(=O)CNC(=O)[C@H](CO)NC(=O)[C@H](CO)NC(=O)CNC(=O)CCCCCCCCCCCCCCCCC(=O)O)C(=O)N(C)[C@H](CC(=O)O)C(=O)N(C)[C@@H](Cc1ccccc1)C(N)=O [Example 29, 17-Carboxyheptadecanoyl-Gly-Ser-Ser-Gly-Ser-Ser-Asp-sTyr-Leu-Gly-Trp-Nle-DMeAsp-MePhe-amide] ({C18 diacid}-GSSGSSD[sY]LGW[Nle][dNMeD][NMeF]-NH2)	119	–
CCCC[C@H](NC(=O)[C@H](Cc1c[nH]c2ccccc12)NC(=O)CNC(=O)[C@H](CC(C)C)NC(=O)[C@H](Cc1ccc(CS(=O)(=O)O)cc1)NC(=O)[C@H](CC(=O)O)NC(=O)COCCOCCNC(=O)COCCOCCNC(=O)CC[C@H](NC(=O)CCCCCCCCCCCCC(=O)O)C(=O)O)C(=O)N(C)[C@H](CC(=O)O)C(=O)N(C)[C@@H](Cc1ccccc1)C(N)=O [Example 34, 2-[2-[2-[[2-[2-[2-[[(4S)-4-Carboxy-4-(13-carboxytridecanoylamino)butanoyl]amino]ethoxy]ethoxy]acetyl]amino]ethoxy]ethoxy]acetyl-Asp-Phe(4-sulfomethyl)-Leu-Gly-Trp-Nle-DMeAsp-MePhe-amide] ({C14 diacid-γGlu-AEEA-AEEA}-D[Phe(4-CH2SO3H)]LGW[Nle][dNMeD][NMeF]-NH2)	–	2
CCCC[C@H](NC(=O)[C@H](Cc1c[nH]c2ccccc12)NC(=O)CNC(=O)[C@H](CC(C)C)NC(=O)[C@H](Cc1ccc(CS(=O)(=O)O)cc1)NC(=O)[C@H](CC(=O)O)NC(=O)COCCOCCNC(=O)COCCOCCNC(=O)CC[C@H](NC(=O)CCCCCCCCCCCCCCCCCCC(=O)O)C(=O)O)C(=O)N(C)[C@H](CC(=O)O)C(=O)N(C)[C@@H](Cc1ccccc1)C(N)=O [Example 35, 2-[2-[2-[[2-[2-[2-[[(4S)-4-Carboxy-4-(19-carboxynonadecanoylamino)butanoyl]amino]ethoxy]ethoxy]acetyl]amino]ethoxy]ethoxy]acetyl-Asp-Phe(4-sulfomethyl)-Leu-Gly-Trp-Nle-DMeAsp-MePhe-amide] ({C20 diacid-γGlu-AEEA-AEEA}-D[Phe(4-CH2SO3H)]LGW[Nle][dNMeD][NMeF]-NH2)	–	153
CCCC[C@H](NC(=O)[C@H](Cc1ccc(OS(=O)(=O)O)cc1)NC(=O)[C@H](CC(=O)O)NC(=O)COCCOCCNC(=O)COCCOCCNC(=O)CC[C@H](NC(=O)CCCCCCCCCCCCCCCCC(=O)O)C(=O)O)C(=O)NCC(=O)N[C@@H](Cc1c[nH]c2ccccc12)C(=O)N[C@@H](CCCC)C(=O)N(C)[C@H](CC(=O)O)C(=O)N[C@@H](Cc1cccc2ccccc12)C(N)=O [Example 2, 2-[2-[2-[[2-[2-[2-[[(4S)-4-Carboxy-4-(17-carboxyheptadecanoylamino)butanoyl]amino]ethoxy]ethoxy]acetyl]amino]ethoxy]ethoxy]acetyl-Asp-sTyr-Nle-Gly-Trp-Nle-DMeAsp-1Nal-amide] ({C18 diacid-γGlu-AEEA-AEEA}-D[sY][Nle]GW[Nle][dNMeD][1Nal]-NH2)	–	140
